According to US20200187499A1, “SUBSTITUTED BENZYL-4-AMINOPICOLINIC ESTERS AND PYRIMIDINO-4-CARBOXYLIC ESTERS, METHODS FOR THE PRODUCTION THEREOF, AND USE THEREOF AS HERBICIDES AND PLANT GROWTH REGULATORS” (Bayer CropScience Aktiengesellschaft, priority 2017, published 2020):

Columns and labels:
Assay type in all cases: in vivo
[1] = test system: ABUTH; assay: Post-emergence herbicidal action; conditions: 320 g/ha, assessed after about 3 weeks
Protocol: (§1) Seeds of monocotyledonous and dicotyledonous weed and crop plants are laid out in sandy loam soil in wood-fiber pots, covered with soil and cultivated in a greenhouse under good growth conditions. 2 to 3 weeks after sowing, the test plants are treated at the one-leaf stage. The compounds of the invention, formulated in the form of wettable powders (WP) or as emulsion concentrates (EC), are then sprayed onto the green parts of the plants in the form of an aqueous suspension or emulsion at a water application rate equating to 600 to 800 l/ha, with addition of 0.2% wetting agent. After the test plants have been left to stand in the greenhouse under optimal growth conditions for about 3 weeks, the action of the preparations is assessed visually in comparison to untreated controls (herbicidal action in percent (%): 100% activity=the plants have died, 0% activity=like control plants). […] At the same time, inventive compounds leave Gramineae crops such as barley, wheat, rye, millet/sorghum, corn or rice virtually undamaged when applied post-emergence, even at high active ingredient dosages. In addition, some substances are also harmless to dicotyledonous crops such as soya, cotton, oilseed rape, sugar beet or potatoes. Some of the compounds according to the invention have high selectivity and are therefore suitable for controlling unwanted vegetation in agricultural crops by the post-emergence method. The tables below illustrate, in an exemplary manner, the post-emergence herbicidal action of the compounds according to the invention, the herbicidal activity being stated in percent.

[2] = test system: SETVI; assay: Post-emergence herbicidal action; conditions: 320 g/ha, assessed after about 3 weeks
Protocol: as §1

[3] = test system: ECHCG; assay: Post-emergence herbicidal action; conditions: 320 g/ha, assessed after about 3 weeks
Protocol: as §1

[4] = test system: AMARE; assay: Post-emergence herbicidal action; conditions: 320 g/ha, assessed after about 3 weeks
Protocol: as §1

[5] = test system: ECHCG; assay: Pre-emergence herbicidal action; conditions: Table 4, pre-emergence (PE), 320 g/ha, scored after 3 weeks
Description: (§2) Seeds of monocotyledonous and dicotyledonous weed plants and crop plants are laid out in sandy loam soil in wood-fiber pots and covered with soil. The compounds of the invention, formulated in the form of wettable powders (WP) or as emulsion concentrates (EC), are then applied to the surface of the covering soil in the form of an aqueous suspension or emulsion at a water application rate equating to 600 to 800 I/ha, with addition of 0.2% wetting agent. After the treatment, the pots are placed in a greenhouse and kept under good growth conditions for the trial plants. The damage to the test plants is scored visually after a test period of 3 weeks by comparison with untreated controls (herbicidal activity in percent (%): 100% activity=the plants have died, 0% activity=like control plants).
(§3) At the same time, inventive compounds leave Gramineae crops such as barley, wheat, rye, millet/sorghum, corn or rice virtually undamaged when applied pre-emergence, even at high active ingredient dosages. In addition, some substances are also harmless to dicotyledonous crops such as soya, cotton, oilseed rape, sugar beet or potatoes. […] The tables below illustrate, in an exemplary manner, the pre-emergence herbicidal action of the compounds according to the invention, the herbicidal activity being stated in percent.

[6] = test system: AMARE; assay: Pre-emergence herbicidal action; conditions: Table 4, pre-emergence (PE), 320 g/ha, scored after 3 weeks
Description: as §2, §3

SMILES	Herbicidal action against ABUTH ([1]; Table 7, post-emergence (PO)) [%]	Herbicidal action against ABUTH ([1]; Table 8, post-emergence (PO)) [%]	Herbicidal action against SETVI ([2]; Table 7, post-emergence (PO)) [%]	Herbicidal action against SETVI ([2]; Table 8, post-emergence (PO)) [%]	Herbicidal action against ECHCG ([3]; Table 7, post-emergence (PO)) [%]	Herbicidal action against ECHCG ([3]; Table 8, post-emergence (PO)) [%]	Herbicidal action against AMARE ([4]; Table 7, post-emergence (PO)) [%]	Herbicidal action against AMARE ([4]; Table 8, post-emergence (PO)) [%]	Herbicidal action against ECHCG [5] [%]	Herbicidal action against AMARE [6] [%]
COc1c(F)ccc(COC(=O)c2nc(-c3ccc4occc4c3)cc(N)c2Cl)c1F [Example I-17]	90	90	100	100	90	90	100	100	90	100
Nc1cc(-c2ccc3ccoc3c2)nc(C(=O)OCc2ccc(F)cc2F)c1Cl [Example I-43]	90	90	90	90	80	80	100	100	0	100
Nc1cc(-c2ccc3ccsc3c2)nc(C(=O)OCc2cccc(Cl)c2)c1Cl [Example I-50]	90	90	40	40	90	90	100	100	70	80
Nc1cc(-c2ccc3ccoc3c2)nc(C(=O)OCc2c(F)c(F)c(F)c(F)c2F)c1Cl [Example I-54]	80	80	80	80	80	80	100	100	0	80
Nc1cc(-c2ccc3ncsc3c2)nc(C(=O)OCc2cccc(Cl)c2)c1Cl [Example I-60]	90	90	80	80	90	90	80	80		
Nc1cc(-c2ccc3ncsc3c2)nc(C(=O)OCc2ccc(Cl)cc2)c1Cl [Example I-69]	90	90	80	80	90	90	100	100		
